Test in all cases: DTP human tumour cell line panel, 48 h
For assay [1], the system named is BT-549 breast.
Assay [2] deals with DU-145 prostate.
The test system of assay [3] is HCT-15 colon.
Assay [4] relates to HOP-62 NSCLC.
Assay [5] has as its system HT29 colon.
For assay [6], the system named is NCI/ADR-RES ovarian.
Assay [7] concerns T-47D breast.
Assay [8] deals with U251 CNS.
In assay [9] the test system is HL-60(TB) leukemia.
The test system of assay [10] is OVCAR-3 ovarian.

Values joined by “and” are separate entries in the source; they are usually repeats but may differ in a detail not shown here. Equal entries are not always repeated.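 96-well plates; 48 h exposure; 5 concentrations. Endpoints by linear interpolation between flanking doses. Not reached: highest tested concentration assigned. Abbreviation: GI50, concentration required for 50% inhibition of growth. TGI denotes the concentration required for complete inhibition of growth.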 Some results are limits rather than exact numbers.

In general, GI50 refers to the concentration at which growth is held to half of that of the control. Broadly, the TGI is the concentration giving total growth inhibition. On to `CO/N=C(/C)c1cccc(Nc2cc(-n3nnc4ccccc43)nc3ccccc23)c1`, for which the GI50 is 63.2 µM in assay [1]; 40.4 µM in assay [2]; 31.8 µM in assay [3]; 19.6 µM in assay [4]; 11.8 µM in [5]; 61.9 µM in [6]. For the same compound, the GI50 in assay [7] and in [8] was > 100 µM throughout. Further, the TGI was > 100 µM in assay [1]; > 100 µM in [2]; > 100 µM in assay [3]; 53.6 µM in assay [4]; > 100 µM in assay [5]; > 100 µM in assay [6]. Moreover, the TGI in [7] and in [8] was > 100 µM throughout.
Turning to `COc1ccc(OC)c2c1[nH]c(=O)c1c3ccccc3cn21`, the GI50 in assay [1] was 2.27 µM; in assay [2], 1.51 µM; in [3], 0.693 µM; in assay [9] it was 1.7 µM; in assay [4], 1.52 µM; in [5], 0.813 µM. In addition, the GI50 in assay [6] was 1.5 µM; in assay [10] it was 1.64 µM; in assay [7], 1.3 µM; in [8], 1.37 µM. For the same compound, the TGI in assay [1] stood at 5.29 µM; in assay [2], 3.03 µM; in [3], 2.42 µM; in assay [9], 4.24 µM; in assay [4], 3.18 µM; in [5], 2.54 µM. Besides, the TGI in assay [6] was found to be 3.38 µM; in assay [10], 3.31 µM; in assay [7] it was 4.07 µM; in assay [8], 2.76 µM.
In the case of `CN1CCN(C2CCN(C(=O)Nc3cc(Oc4ccc(NC(=O)C5(C(=O)Nc6ccc(F)cc6)CC5)c(F)c4)ccn3)CC2)CC1`, the GI50 in assay [1] is 1.02 µM; in assay [2], 1.41 µM; in assay [3], 2.04 µM; in assay [9] it was 1.39 µM; in [5] it was 0.806 µM; in assay [6] it was > 8.16 µM. In addition, the GI50 in assay [7] is 5.56 µM. For the same compound, the TGI in [1] is > 2.71 µM; in assay [2] it was > 10 µM; in [3], > 10 µM; in assay [9], > 3.33 µM; in assay [4], > 3.92 µM; in [5], > 4.38 µM. Also, the TGI was > 10 µM in assay [6], > 3.02 µM in assay [10], > 10 µM in [7] and > 10 µM in assay [8].
For `Oc1ccc(Nc2ncnc3c2sc2ncccc23)cc1`, the GI50 in assay [1] is 0.0389 µM; in assay [2], 0.0369 µM; in assay [3] it was 0.088 µM; in assay [9], 0.0288 µM; in [4], 0.0175 µM; in assay [5] it was 0.0496 µM. In addition, the GI50 in [6] was 0.0286 µM; in assay [10], 0.397 µM; in assay [8], 0.0262 µM. For the same compound, the TGI was > 100 µM in [1]; > 100 µM in [2]; > 100 µM in assay [3]; > 56.5 µM in assay [9]; > 100 µM in assay [5]; > 35.2 µM in assay [6]. Further, the TGI in [10] and in assay [8] was > 100 µM in each case.
On to `C(=NCCN1CCOCC1)=NC1CCCCC1`, for which the TGI in [1], in assay [2], in assay [3], in [4], in [5] and in assay [6] was > 100 µM in each case. The TGI in assay [10], in assay [7] and in assay [8] was > 100 µM in each case.
`CC(=O)Nc1ccc(S(=O)(=O)N2C(=O)CCC2C(=O)Nc2ccc(Br)cc2)cc1` (centres undefined): the GI50 was 1.79 µM in assay [1]; 3.25 µM in assay [2]; 1.72 µM in assay [3]; 3.1 µM in assay [9]; 2.4 µM in assay [4]; 2.76 µM in assay [5]. Further, the GI50 is 2.47 µM in [6], 2.03 µM in [10], 0.532 µM in assay [7] and 1.89 µM in assay [8]. Moreover, the TGI in assay [1] is 8.38 µM; in assay [2], 15.8 µM; in assay [3], 13 µM; in [9], 19 µM; in assay [4], 11.3 µM; in assay [5] it was 14.7 µM. The TGI in assay [6] was > 100 µM; in [10], 7.47 µM; in assay [7], 5.93 µM; in assay [8], 11.3 µM.
As for `COC(=O)C[C@](O)(CCCC(C)(C)O)C(=O)O[C@@H]1C(OC)=C[C@]23CCCN2CCc2cc4c(cc2[C@H]13)OCO4`, the GI50 in assay [1] is 0.0288 µM; in [2] it was 0.0343 µM; in assay [3], 0.0944 µM; in assay [9], 0.0249 µM; in assay [4], 0.0363 µM; in [5], 0.0183 µM. Also, the GI50 in assay [6] is 0.934 µM; in [10], 0.251 µM and 0.0286 µM; in [7] it was 0.0297 µM; in assay [8], 0.0223 µM. Moreover, the TGI in assay [3] was 1.85 µM and 4.71 µM; in [9], 0.237 µM and 0.0758 µM; in assay [4], 0.366 µM and 0.265 µM; in assay [6] it was 14.6 µM; in assay [8] it was 0.564 µM and 0.0728 µM.
Consider `c1ccc(-c2nnc(-c3ccccn3)s2)nc1`, for which the GI50 was > 100 µM in assay [1]; > 100 µM in assay [2]; 83.7 µM in assay [3]; > 100 µM in assay [9]; > 100 µM in assay [4]; > 100 µM in assay [5]. Further, the GI50 is > 100 µM in [6], > 100 µM in assay [10], 5.32 µM in [7] and > 100 µM in [8]. The TGI in [1], in [2], in [3], in assay [9], in [4] and in assay [5] was > 100 µM in each case. The TGI in assay [6], in assay [10], in [7] and in assay [8] was > 100 µM throughout.
